The assay relates to P388. The assay is described as follows: Actual inhibitory activity in P388 leukemia cells by CoMFA analysis, expressed as log 1/IC50. In kind it is functional, cell-based. The conditions noted are these: Mus musculus, P388, read-out: Log 1/IC50 (converted).
Turning to `C=C1[C@@H](OC(=O)/C=C/c2ccccc2)C[C@H](OC(C)=O)[C@@]2(C)[C@@H](OC(C)=O)[C@H](OC(C)=O)[C@]3(O)[C@@]4(C)CO[C@]3(C)C(=O)C[C@H]4[C@@H](OC(C)=O)[C@H]12` [TAXAGIFINE], the IC50 is 0.01 µM.

Turning to `C=C1[C@H]2C[C@@H]3C[C@H](O)C(C)=C([C@@H](OC(C)=O)[C@H](OC(C)=O)[C@]2(C)[C@@H](OC(C)=O)C[C@@H]1O)C3(C)C`, the IC50 was 0.0632 µM.

`CC(=O)O[C@@]12CO[C@@H]1C[C@H](O)[C@]1(C)[C@@H]2[C@H](OC(=O)c2ccccc2)[C@]2(O)CC(=O)C(C)=C([C@@H](O)[C@@H]1O)C2(C)C`: the IC50 was 0.1 µM.

As to `C=C1[C@@H](OC(=O)/C=C/c2ccccc2)C[C@H](OC(C)=O)[C@@]2(C)[C@@H](OC(C)=O)[C@H](OC(C)=O)C3=C(C)C(=O)C[C@@H]([C@@H](OC(C)=O)[C@H]12)C3(C)C`, the IC50 was 0.01 µM.

`C=C1[C@H]2C[C@@H]3C[C@H](OC(C)=O)C(C)=C([C@@H](OC(C)=O)[C@H](OC(C)=O)[C@]2(C)[C@@H](OC(C)=O)C[C@@H]1O)C3(C)C`: the IC50 was 0.0437 µM.

With `C=C1[C@@H](OC(C)=O)CC[C@@]2(C)[C@@H](OC(C)=O)[C@H](OC(C)=O)C3=C(C)[C@@H](OC(C)=O)C[C@@H]([C@@H](OC(C)=O)[C@H]12)C3(C)C`, the IC50 was 0.0166 µM.

As for `CC(=O)O[C@@]12CO[C@@H]1C[C@H](O)[C@@]1(C)C(=O)[C@H](O)C3=C(C)[C@@H](OC(=O)[C@H](O)[C@@H](NC(=O)C4CCC4)c4ccccc4)C[C@@](O)([C@@H](OC(=O)c4ccccc4)[C@H]21)C3(C)C`, the IC50 is 0.0661 µM.

For `C=C1[C@@H](O)C[C@H](OC(C)=O)[C@@]2(COC(=O)c3ccccc3)[C@@H](OC(C)=O)[C@H](OC(C)=O)[C@]3(O)[C@@]4(C)CO[C@]3(C)C(=O)C[C@H]4[C@@H](OC(C)=O)[C@H]12` [TAXININ M], the IC50 is 0.0269 µM.

Consider `CC(=O)O[C@H]1C[C@@]2(O)[C@@H](OC(=O)c3ccccc3)[C@@H]3[C@]4(OC(C)=O)CO[C@@H]4C[C@H](O)[C@@]3(C)[C@@H](O)[C@H](O)C(=C1C)C2(C)C`, for which the IC50 is 0.0289 µM.

In the case of `C=C1[C@H]2C[C@]3(O)C[C@H](O)C(C)=C([C@@H](OC(C)=O)[C@H](OC(C)=O)[C@]2(C)[C@@H](OC(=O)c2ccccc2)C[C@@H]1O)C3(C)C`, the IC50 is 0.0251 µM.

Turning to `C=C1[C@H]2C[C@@H]3CC(=O)C(C)=C([C@@H](OC(C)=O)[C@H](OC(C)=O)[C@]2(C)[C@@H](OC(C)=O)C[C@@H]1O)C3(C)C`, the IC50 was 0.0123 µM.

Regarding `CCCCCC(=O)N[C@@H](c1ccccc1)[C@@H](O)C(=O)O[C@H]1C[C@@]2(O)[C@@H](OC(=O)c3ccccc3)[C@@H]3[C@]4(OC(C)=O)CO[C@@H]4C[C@H](O)[C@@]3(C)C(=O)[C@H](O)C(=C1C)C2(C)C` [10-DEACETYLTAXAYUNNANINE A], the IC50 was 0.0408 µM.

On to `CC(=O)O[C@H]1C[C@H]2[C@@H](OC(C)=O)CC3C[C@](C)(C(=O)[C@H](O)C(=C1C)C2(C)C)[C@@H](O)C[C@@H]3OC(=O)/C=C/c1ccccc1`, for which the IC50 is 0.0479 µM.

On to `CC(=O)O[C@H]1[C@@H]2[C@H](CO)[C@@H](OC(C)=O)C[C@H](OC(C)=O)[C@@]2(C)[C@@H](OC(C)=O)[C@H](OC(C)=O)C2=C(C)[C@@H](OC(C)=O)C[C@@H]1C2(C)C`, for which the IC50 was 0.0141 µM.

`C=C1[C@@H](O)C[C@H](OC(C)=O)[C@@]2(C)[C@@H](OC(C)=O)[C@H](OC(C)=O)C3=C(C)[C@@H](OC(C)=O)C[C@@H]([C@@H](OC(C)=O)[C@H]12)C3(C)C` [DECINNAMOYLTAXININE J]: the IC50 is 0.0126 µM.

Regarding `CCCCCCC(=O)N[C@@H](c1ccccc1)[C@@H](O)C(=O)O[C@H]1C[C@@]2(O)[C@@H](OC(=O)c3ccccc3)[C@@H]3[C@]4(OC(C)=O)CO[C@@H]4C[C@H](O)[C@@]3(C)C(=O)[C@H](OC(C)=O)C(=C1C)C2(C)C`, the IC50 is 0.0182 µM.

As for `CC(=O)O[C@H]1C[C@@]2(O)[C@@H](OC(C)=O)[C@@H]3[C@@]4(CO4)[C@@H](OC(C)=O)C[C@H](OC(C)=O)[C@@]3(C)[C@@H](OC(C)=O)[C@H](OC(C)=O)C(=C1C)C2(C)C`, the IC50 was 0.01 µM.

On to `CCCCCC(=O)N[C@@H](c1ccccc1)[C@@H](O)C(=O)O[C@H]1C[C@@]2(O)[C@@H](OC(=O)c3ccccc3)[C@@H]3[C@]4(OC(C)=O)CO[C@@H]4C[C@H](O)[C@@]3(C)C(=O)[C@H](OC(C)=O)C(=C1C)C2(C)C` [TAXOL C], for which the IC50 is 0.0814 µM.

As to `CC(=O)O[C@@H]1C2=C(C)C(=O)C[C@@](O)([C@@H](OC(=O)c3ccccc3)[C@@H]3[C@]4(OC(C)=O)CO[C@@H]4C[C@H](O)[C@@]3(C)[C@H]1O)C2(C)C`, the IC50 is 0.0479 µM.

`CC(=O)OC[C@H]1[C@H]2[C@H](O)[C@@H]3C[C@H](OC(C)=O)C(C)=C([C@@H](OC(C)=O)[C@H](OC(C)=O)[C@]2(C)[C@@H](OC(C)=O)C[C@@H]1OC(C)=O)C3(C)C`: the IC50 was 0.0123 µM.

As to `CC(=O)O[C@H]1C[C@@]2(O)[C@@H](OC(=O)c3ccccc3)[C@@H]3[C@]4(OC(C)=O)CO[C@@H]4C[C@H](O)[C@@]3(C)[C@@H](O)[C@H](OC(C)=O)C(=C1C)C2(C)C`, the IC50 was 0.0525 µM.

Turning to `CC(=O)O[C@H]1C(=O)[C@@]2(C)[C@H]([C@H](OC(=O)c3ccccc3)[C@]3(O)C[C@H](OC(=O)[C@H](O)[C@@H](NC(=O)c4ccccc4)c4ccccc4)C(C)=C1C3(C)C)[C@]1(OC(C)=O)CO[C@@H]1C[C@@H]2O` [PACLITAXEL], the IC50 was 0.0219 µM.

Take `CCCCCC(=O)N[C@@H](c1ccccc1)[C@@H](O)C(=O)O[C@H]1C[C@@]2(O)[C@@H](OC(=O)c3ccccc3)[C@@H]3[C@]4(OC(C)=O)CO[C@@H]4C[C@H](O)[C@@]3(C)C(=O)[C@@H](O)C(=C1C)C2(C)C`: the IC50 was 0.0892 µM.

As to `CC(=O)O[C@@]12CO[C@@H]1C[C@H](O)[C@@]1(C)C(=O)[C@H](O)C3=C(C)[C@@H](OC(=O)[C@H](O)[C@@H](NC(=O)c4ccccc4)c4ccccc4)C[C@@](O)([C@@H](OC(=O)c4ccccc4)[C@H]21)C3(C)C`, the IC50 was 0.0427 µM.

On to `C=C1[C@@H](O)C[C@H](OC(C)=O)[C@@]2(C)[C@@H](OC(C)=O)[C@H](OC(C)=O)C3=C(C)C(=O)C[C@@H]([C@@H](OC(C)=O)[C@H]12)C3(C)C`, for which the IC50 is 0.0661 µM.

As to `C=C1[C@@H](OC(=O)/C=C/c2ccccc2)CC[C@@]2(C)[C@@H](OC(C)=O)[C@H](OC(C)=O)C3=C(C)C(=O)C[C@@H]([C@@H](OC(C)=O)[C@H]12)C3(C)C`, the IC50 is 0.01 µM.

For the molecule `CC(=O)O[C@H]1C(=O)[C@@]2(C)[C@H]([C@H](OC(=O)c3ccccc3)[C@]3(O)C[C@H](O)C(C)=C1C3(C)C)[C@]1(OC(C)=O)CO[C@@H]1C[C@@H]2O` [BACCATIN III], the IC50 is 0.0632 µM.
